Row | melting point [°C] | Compound
1 | 114 to 116 | CC#CCOc1ccc(OCC(=O)O)cc1
2 | 178 to 180 | Cn1cc(C(=O)Nc2cnccc2-c2ccc(Cl)cc2)c(C(F)(F)F)c1
3 | 140 | CCOC(=O)Cn1c(C(=O)OCC)c2c(c1C(=O)OCC)OCCCO2
4 | 236 to 237 | CCn1cc(C(=O)O)c(=O)c2cc(F)c(N3CCN(S(=O)(=O)c4ccc(C)cc4)CC3)c(F)c21
5 | 176 to 178 | CC(C)COc1ccc(C(=O)N/C(=C\c2ccc(OCC(F)(F)F)cc2)C(=O)NCCO)cc1
6 | 128 to 129 | C#Cc1cnn2ccc(-c3ccc(Cl)cc3)nc12
7 | 115 to 116 | CCOC(=O)c1cccc2nc3cc(C(=O)c4ccccc4)ccc3nc12
8 | 207 to 210 | O=C(O)C1=Cc2cc(-c3ccc(F)cc3)ccc2OC1C(F)(F)F (stereo unspecified)
9 | 173 | C=Cc1cc(CC(=O)O)ccc1OCc1ccc2ccccc2n1
10 | 150 | CC1N=C(c2ccccc2)OC(c2ccccc2)C1OC(=O)Nc1ccccc1 (stereo unspecified)
11 | 246 to 248 | Nc1ccc(Cn2c(=O)c3c(-c4noc(C5CC5)n4)ncn3c3ccccc32)cc1
12 | 191 to 193 | O=C(O)c1cc(=O)c2c(OCC(O)COc3ccc(Cl)cc3)cccc2o1 (stereo unspecified)
13 | 238 to 240 | COC(=O)c1cccc(Cn2c(=O)c(=O)n(Cc3cccc(C(=O)O)c3)c3ccc([N+](=O)[O-])cc32)c1
14 | 159 to 160 | CCOC(=O)c1cc(=O)n(CCC(C(=O)NO)N(C)S(=O)(=O)c2ccc(Oc3ccccc3)cc2)c(=O)[nH]1 (stereo unspecified)
15 | 68 to 71 | CN1C(=O)N(CCCC(NS(=O)(=O)c2ccc(-c3ccc(Cl)cc3)cc2)C(=O)O)C(=O)C1(C)C (stereo unspecified)
16 | 98 to 99 | CCCCCCCC(=N)NC(=S)Nc1ccc(Cl)cc1
17 | 193 to 194 | O=C(O)c1ccc(NCCOc2cccc3ccccc23)cc1
18 | 109 to 111 | CN(CCCNc1ncc(Cc2ccc(O)cc2)c(=O)[nH]1)c1ccccn1
19 | 75 to 76 | CC(C)=CCc1c(O)ccc(C(=O)C=Cc2ccc(O)cc2)c1O
20 | 273 | Cc1ccc2c(c1)C=Cc1cc(C)ccc1C2c1cn(Cc2nc(C(=O)O)co2)c(=O)[nH]c1=S
21 | 210 to 213 | Cc1c(C(=O)Nc2ccc(N3CCC(N(C)C)CC3)c(C#N)c2)cnn1-c1ccc(Cl)cc1
22 | 48 to 52 | O=C(Nc1nccs1)C(CC1CCCC1)c1ccc(S(=O)(=O)C(F)(F)F)cc1 (stereo unspecified)
23 | 130 to 131 | COc1cc(C(=O)O)ccc1OCCCCCOc1nc2ccccc2s1
24 | 157 to 158 | O=C(O)CC(c1ccccc1)N1CC(NC(=O)C(=NO)c2ccccc2)C1=O (stereo unspecified)

Row | melting point [°C] | Compound
25 | 98 to 100 | Cc1cccc(S(=O)(=O)n2ccc(Br)c2)c1C#N
26 | 123 to 124 | CC(C)(C)OC(=O)N1CCN(C(=O)SCc2ccc(OCc3ccc(F)cc3)cc2)CC1
27 | 97 to 103 | CC1C=CCCC1C1OC(=O)NC1=O (stereo unspecified)
28 | 113 to 115 | C=C(C)COCC(C)C1CC=C2C3=C(CCC21C)C1(C)CCC(O)C(C)(C)C1CC3 (stereo unspecified)
29 | 88 to 89 | CCOC(=O)CCc1ccc(OCc2nc(-c3ccco3)oc2C)c(OC)c1
30 | 220 to 221 | NC(=O)c1ccc(N2CCOCC2)cc1
31 | 65 to 68 | CNCCc1ccc2[nH]c(C)c(C(=O)OCc3ccccc3)c2c1
32 | 169 to 170 | CCOC(=O)c1nc2ccccc2[nH]c1=O
33 | 60 to 62 | Cc1ccccc1CC[C@H]([C@H](C)O)n1cnc(C(N)=O)c1
34 | 121 | CNc1nc(Br)cnc1N
35 | 262 to 264 | O=C(Oc1ccc(/C=c2\[nH]c(=O)/c(=C/c3ccccc3)[nH]c2=O)nc1)c1ccncc1
36 | 110 to 111 | COc1cc2[nH]ccc2cc1Br
37 | 154 | CCOC(=O)C1=C[C@@H](OC(CC)CC)[C@@H](NC(C)=O)[C@H](O)[C@@H]1O
38 | 207 to 208 | S=C1NCC(Cl)=NN1c1cc(Cl)cc(Cl)c1
39 | 223 to 224 | O=c1c2ccccc2nc(-c2cc(-c3ccccc3)c(N3CCOCC3)s2)n1-c1ccc(Cl)cc1
40 | 117 | CC(=O)Nc1cc2c(cc1Oc1ccc(F)cc1F)CCC2c1ccccc1 (stereo unspecified)
41 | 151 | C[C@@H]1OC(P(=O)(O)O)=CC[C@@]1(O)n1cnc2c(N)ncnc21
42 | 132 | CN1C(=O)c2c(F)c(F)c(F)c(F)c2C1=O
43 | 116 to 118 | N#Cc1c(N2CCc3ccccc3CC2)nc(C2CC2)n(CC(F)(F)F)c1=O
44 | 161 | Clc1ccc(C2NCCc3c2[nH]c2ccccc32)cc1 (stereo unspecified)
45 | 156 to 158 | Oc1cc2c(Cl)cc(Br)cc2cc1Br
46 | 172 to 175 | Cc1csc2c(C=O)ncn12
47 | 195 | CCCCC1NC(C(=O)O)CS1 (mixture of isomers)
48 | 106 to 109 | CC(=O)OCC(C)(C)CS(N)(=O)=O

Row | melting point [°C] | Compound
49 | 264 to 269 | Cc1c[nH]c(=O)nc1N
50 | 93.6 to 94.9 | CCOCCOc1ccc(-c2nc(=O)c3ccccc3s2)cn1
51 | 159 to 162 | C#CCOc1cc(F)cc(F)c1-n1c(=O)cc(C(F)(F)F)n(C)c1=O
52 | 234 | Cc1cc(Nc2nc(-c3ccccc3)nc3ncccc23)[nH]n1
53 | 95.5 to 97.1 | C=CCN(C)c1c(C=NO)c(=O)n(C)c(=O)n1C
54 | 160 to 162 | Cc1cc(C(=O)O)c(NC(=O)C(C)C)s1
55 | 147 to 151 | Cc1cc(F)c(N)cc1-n1cc(C(=O)O)c(=O)c2cc(F)c(N3CC(O)C3)c(C)c21
56 | 152 to 154 | CCOC(=O)C1(Nc2nc(-c3ccc(Br)cc3)cs2)CC1
57 | 139 | O=C(O)C1c2ccccc2Cc2ccccc21
58 | 155 to 157 | Nc1cnccc1Oc1ccc2[nH]ccc2c1
59 | 104 to 109 | CC(C)C(C)C(=O)NC(C)(Cc1c[nH]c2ccccc12)C(=O)NCCc1ccccc1 (stereo unspecified)
60 | 45.5 to 46.5 | CC(C)=CCCC(C)=CCCC(C)=CCCC(C)=CC=CC(C)=CC(=O)O
61 | 184 | Nc1nc2ccccc2c2c1ncn2CCOC/C=C/c1ccccc1
62 | 199 to 200 | Cc1cc(-c2nc3cccnn3c2-c2ccnc(NC(=O)c3ccoc3)c2)ccc1F
63 | 189 to 191 | Nc1cccc(-c2ccc(CCN3CCN(c4cccc(C(F)(F)F)c4)CC3)cc2)n1
64 | 114 to 116 | CCn1c(C)nc2cc(C(F)(F)F)c(Cl)c([N+](=O)[O-])c21
65 | 98 to 100 | CC(C)C[C@H](N)C(=O)N[C@@H](CC1CCCCC1)[C@@H](O)c1ccccn1
66 | 109 to 111 | COc1ccccc1Cc1nc2ccccc2c(=O)n1CCCl
67 | 147 to 148 | CCCCSc1cc(C(=O)O)cc([N+](=O)[O-])c1-c1ccccc1
68 | 113 | CCOC(=O)NN=C(C)c1ccccn1
69 | 170 | CS(=O)(=O)N=C(NCC(=O)O)Nc1ccc(C#N)cc1
70 | 180 | CCOc1ccc2c(c1)C(C)(c1ccccc1O)C(=O)N2S(=O)(=O)c1ccc(C(=O)NC(C)(C)C)cc1 (stereo unspecified)
71 | 126 to 128 | CC(=O)Oc1c(C)nc(N(C)C)nc1-c1ccccc1
72 | 127 to 129 | CCOc1cc2c(cc1OCC)CCC(C(=O)N1CCN(C(=O)c3cc(OC)c(OC)c(OC)c3)CC1)=C2

Row | melting point [°C] | Compound
73 | 44 to 46 | CCc1c(OC)c(C)c(OC)c2c1C(=O)N(CSc1nnnn1-c1ccccc1)S2(=O)=O
74 | 76 to 77 | COC(CCOc1cc(C)ccc1C)C(C)(C)C(=O)O (stereo unspecified)
75 | 240 to 242 | C=CCNc1c(C(=O)O)cnc2cn[nH]c12
76 | 110 | Fc1ccc([C@H]2CC[C@H](NCc3ccn4c(CC5CC5)nnc4c3C(F)(F)F)CC2)c(F)c1
77 | 84 to 86 | CO/C=C(/C(=O)OC)c1cccnc1Oc1cccc(C=O)c1
78 | 167 to 173 | CN(Cc1ccc(CCC(=O)Nc2ccc(-c3ccc(Cl)cc3)cc2)cc1)C1CCOCC1
79 | 114 to 115 | CCCSc1cc(C(=O)CCC(=O)c2cc(OC)c(OC)c(OC)c2)cc(OC)c1OCc1ccccc1
80 | 110 to 113 | CC(C)NC(=O)c1nsc2ccc(-n3c(=O)cc(C(F)(F)F)n(C)c3=O)cc12
81 | 157 to 163 | Cc1cccc(NC(=O)NC2N=C(C3CCCCC3)c3ccccc3N(Cc3ccccn3)C2=O)c1 (stereo unspecified)
82 | 277 to 279 | Clc1ccc2c(c1)N(c1ncnc3ccc(N4CCOCC4)cc13)CC2
83 | 112 to 114 | COC(=O)Cc1ccc(N)c(O)c1
84 | 102 to 104 | COC(=O)CCCNS(=O)(=O)c1cccc2c([N+](=O)[O-])cccc12
85 | 220 | COc1ccc(-c2ccc3ccc(N)nc3n2)cc1
86 | 229 to 230 | Cc1cc(-c2nc3cccnn3c2-c2ccnc(NC(=O)c3cnccn3)c2)ccc1F
87 | 112 to 114 | COC(=O)C=CC(=O)NC(N)=O
88 | 198 | N#Cc1ccc([C@@H]2CNC[C@@]23NC(=O)N(c2cc(Cl)cc(Cl)c2)C3=O)cc1 (relative stereo)
89 | 150 | O=C(NCc1ccc(Cl)c(Cl)c1)c1ccc2n1Cc1ccccc1N(C(=O)CSc1ccc(Br)cc1)C2
90 | 225 to 226 | Cc1c(-c2cc(F)cc(C(F)(F)F)c2)ccc2nc(N)nc(N)c12
91 | 203 to 207 | CC(CCC(=O)N(Cc1ccccc1)Cc1ccccc1)(c1ccc(O)cc1)c1ccc(O)cc1
92 | 138 to 139 | CC(=O)NCc1coc2c(OC(C)=O)cccc12
93 | 145 to 147 | O=c1oc(C=Cc2ccccc2)nc2ccccc12
94 | 245 to 248 | Cc1nc2c(N)nc3cccnc3c2n1CC1(O)CCN(C(=O)N2CCOCC2)CC1
95 | 246 to 248 | O=C(NCc1ccc(Cl)cc1)c1cnc2ccc(OCCO)cc2c1O
96 | 242 | CC12CC(=O)NN=C1c1ccc(Br)cc1C2 (stereo unspecified)

Row | Compound | melting point [°C]
97 | COc1ncnc2c(Cl)c(NC3=NCCN3)ccc12 | 238 to 239
98 | N#CC1CN1C(=O)NC(=O)c1ccc2c(c1)CCCC2 (stereo unspecified) | 166 to 168
99 | CN1C(=O)CN=C(c2ccccc2F)c2cc(NC(=O)N3CC3)ccc21 | 186 to 190
100 | O=C(O)c1[nH]c(=O)n2c1CN=C(c1ccccc1Cl)c1cc(Cl)ccc1-2 | 236 to 238
101 | CC(C)(C)c1cc(-c2csc(C3(N4CCOCC4)CCOCC3)n2)cc(C(C)(C)C)c1O | 172 to 174

— a melting point compilation (Tetko et al.; mined from patent text by program, amines drawn as free bases though some values may be those of a salt)
